The source of these data is ChEMBL document CHEMBL1201862, “PubChem BioAssay data set” (2004).

Structures are written as SMILES.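 Dose response: 5 concentrations. Exposure: 48 h. Format: 96-well plates. Endpoint: linear interpolation; highest concentration if not reached. GI50: concentration for 50% inhibition of growth.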 Calls of active or inactive are those of the source. No stated cut-off is given here; in the data, active = GI50 up to about 1.1 µM and inactive = higher. Bounds are passed on as bounds.

Test systems include NCI-H460; SNB-19; SF-539; UACC-62; OVCAR-8; SNB-75; SK-MEL-28; SW-620; A498; HOP-92; HCC 2998; UACC-257; MOLT-4; NCI-H23; COLO 205; Malme-3M; RXF 393.
What all share (assay): NCI tumour cell line growth inhibition, 48 h

Regarding `CC1(C)CC(N(C(=O)/C=C/c2ccc([N+](=O)[O-])o2)C2CCCCC2)CC(C)(C)N1`, the GI50 in the assay with NCI-H460 is 3.71 µM (inactive); in the assay on SNB-19, 13.1 µM (inactive); in the assay on SF-539, 9.86 µM (inactive); in the assay on UACC-62 it was 10 µM (inactive); with OVCAR-8 it was 5.2 µM (inactive); in the assay with SNB-75, 10.5 µM (inactive). Further, the GI50 is 12.5 µM (inactive) with SK-MEL-28; 2.55 µM (inactive) in the assay with SW-620; 16.2 µM (inactive) with A498; 3.65 µM (inactive) in the assay on HOP-92; 11.3 µM (inactive) with HCC 2998; 11.1 µM (inactive) with UACC-257. The GI50 in the assay with MOLT-4 was 3.96 µM (inactive); in the assay with NCI-H23, 9.46 µM (inactive).
For `O=C(O)COc1ccc(C(=O)/C(SS/C(C(=O)c2ccc(OCC(=O)O)c(Cl)c2Cl)=C2\C=C(c3ccc(Cl)cc3)SS2)=C2/C=C(c3ccc(Cl)cc3)SS2)c(Cl)c1Cl`, the GI50 with NCI-H460 is 19.1 µM (inactive); in the assay with SNB-19, 8.99 µM (inactive); in the assay on SF-539, 5.9 µM (inactive); in the assay on UACC-62, 9.51 µM (inactive); with OVCAR-8, 5.85 µM (inactive); in the assay with SNB-75, 11.1 µM (inactive). The GI50 was 25.2 µM (inactive) in the assay on SK-MEL-28; 0.435 µM (active) in the assay with SW-620; 31.1 µM (inactive) in the assay with A498; 4.22 µM (inactive) with HOP-92; 12.4 µM (inactive) in the assay with HCC 2998; 78.2 µM (inactive) in the assay with UACC-257. In addition, the GI50 in the assay with MOLT-4 was 3.58 µM (inactive); with NCI-H23 it was 9.23 µM (inactive); in the assay on COLO 205, 0.339 µM (active); in the assay on Malme-3M it was 33.7 µM (inactive).
On to `CN(C)c1ccc(Cc2cc(C(C)(C)C)cc(C(C)(C)C)c2O)cc1`, for which the GI50 in the assay with NCI-H460 was 18.5 µM (inactive); in the assay with SNB-19 it was 21.6 µM (inactive); in the assay with SF-539 it was 20.8 µM (inactive); in the assay on UACC-62 it was 14.7 µM (inactive); in the assay on OVCAR-8, 20 µM (inactive); with SNB-75, 31.2 µM (inactive). For the same molecule, the GI50 is 20.3 µM (inactive) in the assay on SK-MEL-28; 16.4 µM (inactive) in the assay on RXF 393; 16.9 µM (inactive) in the assay on SW-620; 18.2 µM (inactive) in the assay with A498; 19.6 µM (inactive) in the assay on HCC 2998; 15.6 µM (inactive) in the assay with UACC-257. Besides, the GI50 with MOLT-4 was 14.5 µM (inactive); with NCI-H23, 16.1 µM (inactive); in the assay on Malme-3M, 22.5 µM (inactive).
`c1ccc([B-]23Oc4ccccc4[NH+]2c2ccccc2O3)cc1` (stereo not drawn): the GI50 was > 100 µM (inactive) in the assay on SNB-19; > 100 µM (inactive) with SF-539; > 100 µM (inactive) with UACC-62; 57.7 µM (inactive) with OVCAR-8; > 100 µM (inactive) in the assay on SNB-75; > 100 µM (inactive) with SK-MEL-28. Moreover, the GI50 with RXF 393 is > 100 µM (inactive); in the assay on SW-620, 33.2 µM (inactive); in the assay on A498, > 100 µM (inactive); in the assay on HOP-92, > 100 µM (inactive); with UACC-257 it was > 100 µM (inactive); in the assay with MOLT-4 it was 25.8 µM (inactive). In addition, the results for the GI50 in the assay with NCI-H23, in the assay with COLO 205 and with Malme-3M were > 100 µM (inactive), 49 µM (inactive) and > 100 µM (inactive), respectively.
With `CC(C)CC(=O)N1CCN(C(=O)CC(C)C)c2ccccc21`, the GI50 in the assay on NCI-H460, in the assay on SNB-19, with SF-539, in the assay with OVCAR-8, in the assay with SNB-75 and with SK-MEL-28 was > 100 µM (inactive) in each case. Also, the GI50 with RXF 393, in the assay on SW-620, in the assay on A498, in the assay with HOP-92, in the assay on HCC 2998 and in the assay on UACC-257 was > 100 µM (inactive) throughout. Moreover, the GI50 in the assay with MOLT-4, in the assay on NCI-H23, with COLO 205 and in the assay on Malme-3M was > 100 µM (inactive) in each case.
For the molecule `O=C1[C@@H](c2ccc(Cl)cc2)[C@H]2CC=C[C@H]2N1O`, the GI50 in the assay with SNB-19, in the assay with SF-539, in the assay with UACC-62, in the assay with OVCAR-8, in the assay on SNB-75 and in the assay on SK-MEL-28 was > 100 µM (inactive) each time. Moreover, the GI50 is 14.3 µM (inactive) with RXF 393; > 100 µM (inactive) in the assay with SW-620; 52.8 µM (inactive) with HCC 2998; > 100 µM (inactive) with UACC-257; 66.1 µM (inactive) in the assay on MOLT-4; > 100 µM (inactive) in the assay on NCI-H23. Also, the GI50 in the assay on COLO 205 and in the assay with Malme-3M was > 100 µM (inactive) in each case.
Turning to `CCN(CC)CCCCC1CCN(CC(=O)N2CC(C)C(=O)Nc3ccccc32)CC1` (stereo not drawn), the GI50 in the assay with NCI-H460, in the assay with SNB-19, in the assay on UACC-62, in the assay on SK-MEL-28, in the assay on SW-620 and in the assay with A498 was > 100 µM (inactive) each time. Further, the GI50 with HOP-92, in the assay with HCC 2998, in the assay with UACC-257, with MOLT-4, in the assay on NCI-H23 and in the assay on COLO 205 was > 100 µM (inactive) throughout. The GI50 in the assay with Malme-3M was > 100 µM (inactive).
As to `Cc1cc(Cl)ccc1NC(=O)CC1SC(N)=NC1=O` (stereo not drawn), the GI50 in the assay on NCI-H460, in the assay with SNB-19, in the assay on SF-539, in the assay on UACC-62, in the assay with OVCAR-8 and with SNB-75 was > 100 µM (inactive) in each case. The GI50 with SK-MEL-28 is > 100 µM (inactive); in the assay on RXF 393, > 100 µM (inactive); in the assay on SW-620 it was > 100 µM (inactive); with A498, 17.7 µM (inactive); with HCC 2998 it was > 100 µM (inactive); in the assay with UACC-257, > 100 µM (inactive). Further, the GI50 in the assay with MOLT-4, in the assay on NCI-H23, in the assay on COLO 205 and in the assay with Malme-3M was > 100 µM (inactive) each time.
On to `Cc1ccc(C2=C(c3ccccc3)C(O)(c3ccccc3)C(c3ccccc3)=C2c2ccc(C)cc2)cc1`, for which the GI50 in the assay on NCI-H460, with SNB-19, in the assay on SF-539, with OVCAR-8, with SNB-75 and with SK-MEL-28 was > 100 µM (inactive) each time. The GI50 with RXF 393 was > 100 µM (inactive); with SW-620, > 100 µM (inactive); in the assay with A498, > 100 µM (inactive); in the assay with HCC 2998, > 100 µM (inactive); in the assay on UACC-257, > 100 µM (inactive); with MOLT-4 it was 7.93 µM (inactive). Also, the GI50 in the assay with NCI-H23 was 69.3 µM (inactive); in the assay on Malme-3M it was > 100 µM (inactive).
